Results on one compound are retold here after patent US20130116282A1, “BUCKWHEAT EXTRACT ENRICHED IN D-FAGOMINE” (BIOGLANE, S.L.N.E., priority 2010, published 2013).

One experiment has as its system lactase. To be noted: Kato et al. 1997; cited from earlier work.
In experiment [1] the test system is Streptozotocin-diabetic mice. To be noted: Nojima et al. 1998; cited from earlier work.
The next experiment relates to Escherichia coli. The experiment can be described thus: Adhesion of Escherichia coli to mucus (pig intestinal mucosa). To be noted: 10 mg/L D-fagomine. In kind it is cell-based. On the procedure:
Adhesion to Mucus. Protocol
The strains of Escherichia coli used were obtained from the Bacterial Strain Collection of the Faculty of Veterinary Science at the Universitat Autònoma de Barcelona. Overnight, cultures of the bacterial strain were inoculated into flasks containing Luria medium (Liofilchem, Roseto degli Abruzzi, Italy) (3 mL) to facilitate the production of fimbriae. The strains were incubated at 37° C. for 24 h. Then, colonies were grown on Luria medium Agar plates and after 24 h of incubation, several dilutions were prepared in PBS (phosphate buffered saline, Sigma Aldrich, St Louis, Mo., USA) for each strain, down to a concentration of 1×10^7 CFU mL^−1.
The mucosa was obtained from intestinal segments of pigs, just after they were killed at a local slaughterhouse, and kept frozen until use. The mucosa preparation (1 mL) was defrosted, centrifuged and mixed with PBS (99 mL). Prior to each test, the concentration of mucine in the suspension was calculated by the Bradford method. Multiwell plates (Nunc®, Roskilde, Denmark) were treated with the mucosa suspension (2.5 mL) overnight at 4° C. […] Finally, the colony forming units from both the supernatant and mucosa were counted under an optical microscope after cultivating both fractions overnight.

Another experiment has as its system Sprague-Dawley rats. The experiment can be described thus: Post-prandial blood glucose test after sucrose administration. The experiment is classed as in vivo, rat. To be noted: sucrose 2 g/kg, 1.0 mg/kg D-fagomine. On the procedure:
The effect on postprandial blood glucose of both D-fagomine enriched extract from buckwheat and D-fagomine obtained chemoenzimatically following the procedure described in WO2008025826A1 was evaluated. Adult male Sprague-Dawley rats of 200-220 g body weight (Janvier, Le Genest-St-Isle, France) were housed in cages (n=2/cage) under controlled conditions of stable humidity (40-77%), and temperature (23° C.) with a 12-hour light/dark cycle. The rats were fed a standard diet (Panlab A04, Panlab, Barcelona, Spain) and given water ad libitum. To minimize circadian rhythm effects, rat manipulations were carried out in the morning. Handling and sacrificing of the animals were in full accordance with the European Union guidelines for the care and management of laboratory animals and the pertinent permission was obtained from the CSIC Subcommittee of Bioethical Issues. The authors further attest that all efforts were made to minimize the number of animals used and their suffering. The glucose test was performed after a 12 h food deprivation period. A solution of sucrose (2 g/kg body weight) together with the appropriate amount of the compound being tested was administered to the rats. […] Blood glucose concentration was measured by the enzyme electrode method using Elite blood glucose test strips and a blood glucose meter Ascensia ELITE XL both from Bayer Consumer Care AG (Basel, Switzerland). […]

In another experiment the test system is alpha-glycosidase. To be noted: Kato et al. 1997; cited from earlier work.

`OC[C@H]1NCC[C@@H](O)[C@@H]1O` [D-fagomine WO2008025826A1, (2R,3R,4R)-2-(hydroxymethyl)piperidine-3,4-diol]: the lactase inhibition entry in the experiment on lactase was “weak inhibitor”. The antihyperglycemic effect entry in experiment [1] is on record as “antihyperglycemic effect”. In addition, in the experiment with Escherichia coli, the “Agglutination of the microorganisms” value is on record as “agglutinated” and the “Bacterial adhesion to the mucus” value is “not detected”. For the same compound, the “Increase in plasma glucose after sucrose administration” value in the experiment with Sprague-Dawley rats is listed as “lowered”. Further, the alpha-glycosidase inhibition result in the experiment with alpha-glycosidase is on record as “weak inhibitor”.
